Experiments:
[1] = tested on: Puccinia recondita f. Sp. Triticil; experiment: Puccinia recondita f. sp. tritici / wheat / leaf disc curative (brown rust); type: in vivo, Puccinia recondita f. sp. tritici on wheat cv. Kanzler; conditions: foliar, 200 ppm in the applied formulation, applied 1 day after inoculation, assessed 6 to 8 days after application, vs untreated control leaf disks, read-out: disease control
Experimental: (§1) Leaf disks or leaf segments of various plant species are cut from plants grown in a greenhouse. The cut leaf disks or segments are placed in multiwell plates (24-well format) onto water agar. The leaf disks are sprayed with a test solution before (preventative) or after (curative) inoculation. Compounds to be tested are prepared as DMSO solutions (max. 10 mg/ml) which are diluted to the appropriate concentration with 0.025% Tween20 just before spraying. The inoculated leaf disks or segments are incubated under defined conditions (temperature, relative humidity, light, etc.) according to the respective test system. A single evaluation of disease level is carried out 3 to 14 days after inoculation, depending on the pathosystem. Percent disease control relative to the untreated check leaf disks or segments is then calculated.
Wheat leaf segments cv. Kanzler are placed on agar in multiwell plates (24-well format). The leaf segments are then inoculated with a spore suspension of the fungus. Plates were stored in darkness at 19° C. and 75% relative humidity. The formulated test compound diluted in water was applied 1 day after inoculation. The leaf segments were incubated at 19° C. and 75% relative humidity under a light regime of 12 hours light/12 hours darkness in a climate cabinet and the activity of a compound was assessed as percent disease control compared to untreated when an appropriate level of disease damage appears in untreated check leaf segments (6 to 8 days after application).
(§2) The following compounds at 200 ppm in the applied formulation give at least 80% disease control in this test when compared to untreated control leaf disks under the same conditions, which show extensive disease development.

[2] = tested on: Glomerella Lacenarium (Colletotrichum lacenarium); experiment: Glomerella lagenarium (Colletotrichum lagenarium) liquid culture / cucumber / preventative (anthracnose); type: cell-based; conditions: 20 ppm in the applied formulation, liquid culture in PDB, 24° C., inhibition of growth measured photometrically 3 to 4 days after application, vs untreated control, read-out: disease control
Experimental: Mycelia fragments or conidia suspensions of a fungus prepared either freshly from liquid cultures of the fungus or from cryogenic storage, are directly mixed into nutrient broth. DMSO solutions of the test compound (max. 10 mg/ml) are diluted with 0.025% Tween20 by a factor of 50 and 10 μl of this solution is pipetted into a microtiter plate (96-well format). The nutrient broth containing the fungal spores/mycelia fragments is then added to give an end concentration of the tested compound. The test plates are incubated in the dark at 24° C. and 96% relative humidity. The inhibition of fungal growth is determined photometrically after 2 to 7 days, depending on the pathosystem, and percent antifungal activity relative to the untreated check is calculated.
Conidia of the fungus from cryogenic storage are directly mixed into nutrient broth (PDB—potato dextrose broth). After placing a (DMSO) solution of test compound into a microtiter plate (96-well format), the nutrient broth containing the fungal spores is added. The test plates are incubated at 24° C. and the inhibition of growth is measured photometrically 3 to 4 days after application.
The following compounds at 20 ppm in the applied formulation give at least 80% disease control in this test when compared to untreated control under the same conditions, which show extensive disease development.

[3] = tested on: Puccinia recondita f. Sp. Tritici; experiment: Puccinia recondita f. sp. tritici / wheat / leaf disc preventative (brown rust); type: in vivo, Puccinia recondita f. sp. tritici on wheat cv. Kanzler; conditions: foliar, 200 ppm in the applied formulation, inoculated 1 day after application, assessed 7 to 9 days after application, vs untreated control leaf disks, read-out: disease control
Experimental: as §1, with “calculated. Wheat leaf segments cv. Kanzler were placed on agar in multiwell plates (24-well format) and sprayed with the formulated test compound diluted in water. The leaf disks were inoculated with a spore suspension of the fungus 1 day after application. The inoculated leaf segments were incubated at 19′C and 75% relative humidity (rh) under a light regime of 12 hours light/12 hours darkness in a climate cabinet and the activity of a compound was assessed as percent disease control compared to untreated when an appropriate level of disease damage appears in untreated check leaf segments (7 to 9 days after application). The following compounds at 200 ppm in the applied formulation give at least 80% disease control in this test when compared to untreated control leaf disks under the same conditions, which show extensive disease development.” for “calculated.”

Phakopsora pachyrhizi = Phakopsora pachyrhizi / soybean / leaf disc preventative (Asian soybean rust); type: in vivo, Phakopsora pachyrhizi on soybean; conditions: foliar, 200 ppm in the applied formulation, inoculated one day after application, assessed 12 to 14 days after application, vs untreated control leaf disks, read-out: disease control
Experimental: as §1
Soybean leaf disks are placed on water agar in multiwell plates (24-well format) and sprayed with the formulated test compound diluted in water. One day after application leaf discs are inoculated by spraying a spore suspension on the lower leaf surface. After an incubation period in a climate cabinet of 24-36 hours in darkness at 20° C. and 75% rh leaf disc are kept at 20° C. with 12 h light/day and 75% rh. The activity of a compound is assessed as percent disease control compared to untreated when an appropriate level of disease damage appears in untreated check leaf disks (12 to 14 days after application).
as §2

CC1(C)CC1C(=O)NCc1ccc(-c2noc(C(F)(F)F)n2)cc1 (stereo not drawn) [Compound 1.28, 2,2-dimethyl-N-[[4-[5-(trifluoromethyl)-1,2,4-oxadiazol-3-yl]phenyl]methyl] cyclopropanecarboxamide]
≥ 80%: pest or weed control at 200 ppm [1] | inhibition of growth at 20 ppm [2] | pest or weed control at 200 ppm [3] | pest or weed control at 200 ppm (Phakopsora pachyrhizi)

O=C(NCc1ccc(-c2noc(C(F)(F)F)n2)c(F)c1)C1CCC1 [Compound 1.93, N-[[3-fluoro-4-[5-(trifluoromethyl)-1,2,4-oxadiazol-3-yl]phenyl]methyl] cyclobutanecarboxamide]
≥ 80%: pest or weed control at 200 ppm [1] | inhibition of growth at 20 ppm [2] | pest or weed control at 200 ppm [3] | pest or weed control at 200 ppm (Phakopsora pachyrhizi)

O=C(CC1CC1)NCc1ccc(-c2noc(C(F)(F)F)n2)cc1F [Compound 1.62, 2-cyclopropyl-N-[[2-fluoro-4-[5-(trifluoromethyl)-1,2,4-oxadiazol-3-yl]phenyl]methyl] acetamide]
≥ 80%: pest or weed control at 200 ppm [1] | inhibition of growth at 20 ppm [2] | pest or weed control at 200 ppm [3] | pest or weed control at 200 ppm (Phakopsora pachyrhizi)

CC1CC1C(=O)NCCc1ccc(-c2noc(C(F)(F)F)n2)cc1 (stereo not drawn) [Compound 1.102, 2-methyl-N-[2-[4-[5-(trifluoromethyl)-1,2,4-oxadiazol-3-yl]phenyl]ethyl] cyclopropanecarboxamide]
≥ 80%: pest or weed control at 200 ppm [1] | inhibition of growth at 20 ppm [2] | pest or weed control at 200 ppm [3] | pest or weed control at 200 ppm (Phakopsora pachyrhizi)

CC1CC1C(=O)NCc1ccc(-c2noc(C(F)(F)F)n2)cc1F (stereo not drawn) [Compound 1.66, N-[[2-fluoro-4-[5-(trifluoromethyl)-1,2,4-oxadiazol-3-yl]phenyl]methyl]-2-methyl-cyclopropanecarboxamide]
≥ 80%: pest or weed control at 200 ppm [1] | inhibition of growth at 20 ppm [2] | pest or weed control at 200 ppm [3] | pest or weed control at 200 ppm (Phakopsora pachyrhizi)

CC1(C(=O)NCc2ccc(-c3noc(C(F)(F)F)n3)c(F)c2)COC1 [Compound 1.69, N-[[3-fluoro-4-[5-(trifluoromethyl)-1,2,4-oxadiazol-3-yl]phenyl]methyl]-3-methyl-oxetane-3-carboxamide]
≥ 80%: pest or weed control at 200 ppm [1] | inhibition of growth at 20 ppm [2] | pest or weed control at 200 ppm [3] | pest or weed control at 200 ppm (Phakopsora pachyrhizi)

CC1CC1C(=O)NCc1ccc(-c2noc(C(F)(F)F)n2)c(F)c1 (stereo not drawn) [Compound 1.64, N-[[3-fluoro-4-[5-(trifluoromethyl)-1,2,4-oxadiazol-3-yl]phenyl]methyl]-2-methyl-cyclopropanecarboxamide]
≥ 80%: pest or weed control at 200 ppm [1] | inhibition of growth at 20 ppm [2] | pest or weed control at 200 ppm [3] | pest or weed control at 200 ppm (Phakopsora pachyrhizi)

O=C(NCc1ccc(-c2noc(C(F)(F)F)n2)c(F)c1F)C1CCC1 [Compound 1.75, N-[[2,3-difluoro-4-[5-(trifluoromethyl)-1,2,4-oxadiazol-3-yl]phenyl]methyl] cyclobutanecarboxamide]
≥ 80%: pest or weed control at 200 ppm [1] | inhibition of growth at 20 ppm [2] | pest or weed control at 200 ppm [3] | pest or weed control at 200 ppm (Phakopsora pachyrhizi)

O=C(NCCc1ccc(-c2noc(C(F)(F)F)n2)cc1)C1CC1(F)F (stereo not drawn) [Compound 1.98, 2,2-difluoro-N-[2-[4-[5-(trifluoromethyl)-1,2,4-oxadiazol-3-yl]phenyl]ethyl] cyclopropanecarboxamide]
≥ 80%: pest or weed control at 200 ppm [1] | inhibition of growth at 20 ppm [2] | pest or weed control at 200 ppm [3] | pest or weed control at 200 ppm (Phakopsora pachyrhizi)

O=C(NCc1ccc(-c2noc(C(F)(F)F)n2)cc1F)C1CCCO1 (stereo not drawn) [Compound 1.49, N-[[2-fluoro-4-[5-(trifluoromethyl)-1,2,4-oxadiazol-3-yl]phenyl]methyl]tetrahydrofuran-2-carboxamide]
≥ 80%: pest or weed control at 200 ppm [1] | inhibition of growth at 20 ppm [2] | pest or weed control at 200 ppm [3] | pest or weed control at 200 ppm (Phakopsora pachyrhizi)

CC1CC1C(=O)NCc1ccc(-c2noc(C(F)(F)F)n2)cc1 (stereo not drawn) [Compound 1.24, 2-methyl-N-[[4-[5-(trifluoromethyl)-1,2,4-oxadiazol-3-yl]phenyl]methyl] cyclopropanecarboxamide]
≥ 80%: pest or weed control at 200 ppm [1] | inhibition of growth at 20 ppm [2] | pest or weed control at 200 ppm [3] | pest or weed control at 200 ppm (Phakopsora pachyrhizi)

CC1CC1C(=O)NCc1ccc(-c2noc(C(F)(F)F)n2)c(F)c1F (stereo not drawn) [Compound 1.77, N-[[2,3-difluoro-4-[5-(trifluoromethyl)-1,2,4-oxadiazol-3-yl]phenyl]methyl]-2-methyl-cyclopropanecarboxamide]
≥ 80%: inhibition of growth at 20 ppm [2] | pest or weed control at 200 ppm [3] | pest or weed control at 200 ppm (Phakopsora pachyrhizi)

O=C(NCc1ccc(-c2noc(C(F)(F)F)n2)cc1)C1CCCCC1 [Compound 1.10, N-[[4-[5-(trifluoromethyl)-1,2,4-oxadiazol-3-yl]phenyl]methyl] cyclohexanecarboxamide]
≥ 80%: inhibition of growth at 20 ppm [2] | pest or weed control at 200 ppm [3] | pest or weed control at 200 ppm (Phakopsora pachyrhizi)

CC1(C(=O)NCc2ccc(-c3noc(C(F)(F)F)n3)c(F)c2)CC1 [Compound 1.65, N-[[3-fluoro-4-[5-(trifluoromethyl)-1,2,4-oxadiazol-3-yl]phenyl]methyl]-1-methyl-cyclopropanecarboxamide]
≥ 80%: pest or weed control at 200 ppm [1] | inhibition of growth at 20 ppm [2] | pest or weed control at 200 ppm [3] | pest or weed control at 200 ppm (Phakopsora pachyrhizi)

CC1(C(=O)NCCc2ccc(-c3noc(C(F)(F)F)n3)cc2)CC1 [Compound 1.103, 1-methyl-N-[2-[4-[5-(trifluoromethyl)-1,2,4-oxadiazol-3-yl]phenyl]ethyl] cyclopropanecarboxamide]
≥ 80%: inhibition of growth at 20 ppm [2] | pest or weed control at 200 ppm [3] | pest or weed control at 200 ppm (Phakopsora pachyrhizi)
